Read-outs that look alike come from different tables or passages of the source.
Test: Rat in vivo CNS penetration: plasma, brain and CSF concentrations by LC-MS/MS
Details: male, Sprague Dawley, po, 10 mg/kg, 10 mg/kg p.o.; for concentration at 2 h / Kp at 2 h: 2 h post-dose; for concentration at 4 h / Kp at 4 h: 4 h post-dose; for concentration at 6 h / Kp at 6 h: 6 h post-dose; for concentration at 8 h / Kp at 8 h: 8 h post-dose
Description: Rat In Vivo CNS Penetration Male Sprague Dawley rats were acquired from Charles River UK Ltd. (Margate, UK) and housed according to UK Home Office guidelines. Drugs were made up to the appropriate concentrations in 0.5% methyl cellulose. Animals were dosed orally (2 mL/kg) by gavage at the doses outlined in Tables 1 to 4 below. At the time points post-dosing, specified in the Tables 1 to 4 below the animals were administered an i.p. injection of sodium pentobarbitone (approximately 330 mg/kg for terminal anaesthesia). Using a guillotine, the animals were decapitated and trunk blood collected into 15 ml Falcon tubes containing 100 IU heparin. Blood was vortexed followed by centrifugation at 6000 rpm, 4° C. for 5 minutes. Plasma was collected for DMPK and ELISA assays and stored at −80° C. until use. Brains were dissected out and divided along the midline, weighed and stored at −80° C. until further use. Method for Analysis of Plasma, Brain and CSF Samples Test compound was prepared as a 1 mg free base/mL solution in DMSO, vortexed and sonicated for 5 min. The 1 mg/mL DMSO solution was diluted to 10 and 30 μg/mL acetonitrile stocks, by adding 10 μL to 990 μL acetonitrile and 30 μL to 970 acetonitrile, respectively. The 10 and 30 μg/mL acetonitrile stocks were then serially diluted 1:9 (v/v) (100 μL stock into 900 μL acetonitrile) to give the following solutions: 0.003, 0.01, 0.03, 0.1, 0.3, 1, 3, 10 and 30 μg/mL acetonitrile. Control male Sprague Dawley rat plasma and the study plasma samples were stored at −80° C. until the day of analysis when they were thawed at room temperature. Control plasma was centrifuged (2,000 g for 10 min) and aliquoted (90 μL) into eppendorf tubes for preparation of standards and blank samples. Study samples were previously aliquoted (100 μL) into eppendorf tubes immediately following collection of the plasma. An aliquot (10 μL) of the appropriate acetonitrile stock was added to the control plasma (to give a final volume of 100 μL) to give the required calibration standards covering the range 1-3000 ng/mL. Double blank and blank samples were prepared by adding 10 μL of acetonitrile to 90 μL of blank plasma. Control male Sprague Dawley rat brain and the study brain samples were weighed after collection and stored at −80° C. until the day of analysis when they were thawed at room temperature. Once thawed brains were diluted with water (4 mL per gram of tissue) and homogenised using a mechanical homogeniser. An aliquot (100 μL) of each study sample was taken into Micronics tubes ready for analysis and sufficient aliquots (90 μL) of control brain homogenate prepared for preparation of standards and blanks. An aliquot (10 μL) of the appropriate acetonitrile stocks was added to the control brain homogenate (to give a final volume of 100 μL) to give the required calibration standards covering the range 1.5-5000 ng/g. Double blank and blank samples were prepared by adding 10 μL of acetonitrile to 90 μL of blank brain homogenate. Each plasma and brain homogenate sample, standard and blank (100 μL) was extracted with an aliquot (300 μL) of acetonitrile (containing 0.1% formic acid and 100 ng/mL of an appropriate internal standard). Double blanks were extracted with an aliquot (300 μL) of acetonitrile containing 0.1% formic acid). All samples, standards and blanks were then vortex mixed and centrifuged (2000 g for 15 min). An aliquot (50 μL) of the resulting supernatant was then taken into a 2 mL 96-deep well plate and diluted with acetonitrile:water (50:50 v/v) (150 μL) ready for analysis by a specific LC-MS/MS method. Control male Sprague Dawley rat CSF and the study CSF samples were stored at −80° C. until the day of analysis when they were thawed at room temperature. An aliquot (50 μL) of each study sample was taken into Micronics tubes ready for analysis and sufficient aliquots (45 μL) of control CSF prepared for preparation of standards and blanks. […]

[1] = CSF, CSF concentration, read-out: [CSF]
[2] = brain, total brain concentration, read-out: [Br]
[3] = brain, unbound brain, [Br] x Br Fu, read-out: [Bru]
[4] = plasma, total plasma concentration, read-out: [Pl]
[5] = plasma, unbound plasma, [Pl] x Pl Fu, read-out: [Plu]

Row | concentration at 2 h [1] | Kp at 2 h (CSF, read-out: CSF:Plu) | concentration at 4 h [1] | Kp at 4 h (CSF, read-out: CSF:Plu) | concentration at 6 h [1] | Kp at 6 h (CSF, read-out: CSF:Plu) | concentration at 8 h [1] | Kp at 8 h (CSF, read-out: CSF:Plu) | Kp at 2 h (brain, read-out: Brtot:Pltot) | Kp at 2 h (brain, read-out: Bru:Plu) | concentration at 2 h [2] | concentration at 2 h [3] | Kp at 4 h (brain, read-out: Brtot:Pltot) | Kp at 4 h (brain, read-out: Bru:Plu) | concentration at 4 h [2] | concentration at 4 h [3] | Kp at 6 h (brain, read-out: Brtot:Pltot) | Kp at 6 h (brain, read-out: Bru:Plu) | concentration at 6 h [2] | concentration at 6 h [3] | Compound | other results
1 | 34 nM | 0.6 | 16 nM | 0.5 | 15 nM | 0.5 | 9 nM | 0.7 | 2.8 | 0.7 | 1090 nM | 38 nM | 2.5 | 0.6 | 576 nM | 20 nM | 2.4 | 0.6 | 561 nM | 20 nM | COc1cnc(C(=O)Nc2ccc(F)c([C@]34CO[C@H](C(F)F)[C@H]3CSC(N)=N4)c2)cn1 [Example 3, N-(3-((4aS,5S,7aS)-2-amino-5-(difluoromethyl)-4a,5,7,7a-tetrahydro-4H-furo[3,4-d][1,3]thiazin-7a-yl)-4-fluorophenyl)-5-methoxypyrazine-2-carboxamide] | Kp at 8 h (brain, read-out: Brtot:Pltot): 3; Kp at 8 h (brain, read-out: Bru:Plu): 0.7; concentration at 8 h [2]: 257 nM; concentration at 8 h [3]: 9 nM; concentration at 2 h [4]: 385 nM; concentration at 2 h [5]: 55 nM; concentration at 4 h [4]: 226 nM; concentration at 4 h [5]: 32 nM; concentration at 6 h [4]: 232 nM; concentration at 6 h [5]: 33 nM; concentration at 8 h [4]: 85 nM; concentration at 8 h [5]: 12 nM
2 | 33 nM | 0.6 | 40 nM | 0.6 | 13 nM | 0.6 | 8 nM | 0.6 | 3.8 | 0.6 | 1470 nM | 31 nM | 3.4 | 0.5 | 1620 nM | 34 nM | 3.8 | 0.6 | 609 nM | 13 nM | COc1cnc(C(=O)Nc2cc(F)c(F)c([C@]34CO[C@H](CF)[C@H]3CSC(N)=N4)c2)cn1 [Example 4, N-(3-((4aS,5S,7aS)-2-amino-5-(fluoromethyl)-4a,5,7,7a-tetrahydro-4H-furo[3,4-d][1,3]thiazin-7a-yl)-4,5-difluorophenyl)-5-methoxypyrazine-2-carboxamide] | Kp at 8 h (brain, read-out: Brtot:Pltot): 3.7; Kp at 8 h (brain, read-out: Bru:Plu): 0.6; concentration at 8 h [2]: 385 nM; concentration at 8 h [3]: 8 nM; concentration at 2 h [4]: 392 nM; concentration at 2 h [5]: 51 nM; concentration at 4 h [4]: 482 nM; concentration at 4 h [5]: 63 nM; concentration at 6 h [4]: 162 nM; concentration at 6 h [5]: 21 nM; concentration at 8 h [4]: 105 nM; concentration at 8 h [5]: 14 nM

Row | Compound | concentration at 2 h [1] | Kp at 2 h (CSF, read-out: CSF:Plu) | concentration at 4 h [1] | Kp at 4 h (CSF, read-out: CSF:Plu) | concentration at 6 h [1] | Kp at 6 h (CSF, read-out: CSF:Plu) | concentration at 8 h [1] | Kp at 8 h (CSF, read-out: CSF:Plu) | Kp at 2 h (brain, read-out: Brtot:Pltot) | Kp at 2 h (brain, read-out: Bru:Plu) | concentration at 2 h [2] | concentration at 2 h [3] | Kp at 4 h (brain, read-out: Brtot:Pltot) | Kp at 4 h (brain, read-out: Bru:Plu) | concentration at 4 h [2] | concentration at 4 h [3] | Kp at 6 h (brain, read-out: Brtot:Pltot) | Kp at 6 h (brain, read-out: Bru:Plu) | concentration at 6 h [2] | concentration at 6 h [3] | other results
3 | COc1cnc(C(=O)Nc2ccc(F)c([C@]34CO[C@H](CF)[C@H]3CSC(N)=N4)c2)cn1 [Example 2, N-(3-((4aS,5S,7aS)-2-amino-5-(fluoromethyl)-4a,5,7,7a-tetrahydro-4H-furo[3,4-d][1,3]thiazin-7a-yl)-4-fluorophenyl)-5-methoxypyrazine-2-carboxamide] | 133 nM | 0.6 | 201 nM | 1.2 | 60 nM | 0.7 | 68 nM | 1.2 | 2.1 | 0.6 | 1780 nM | 118 nM | 2.1 | 0.5 | 1340 nM | 88 nM | 2 | 0.5 | 703 nM | 46 nM | Kp at 8 h (brain, read-out: Brtot:Pltot): 2.1; Kp at 8 h (brain, read-out: Bru:Plu): 0.6; concentration at 8 h [2]: 479 nM; concentration at 8 h [3]: 32 nM; concentration at 2 h [4]: 850 nM; concentration at 2 h [5]: 214 nM; concentration at 4 h [4]: 645 nM; concentration at 4 h [5]: 163 nM; concentration at 6 h [4]: 353 nM; concentration at 6 h [5]: 89 nM; concentration at 8 h [4]: 224 nM; concentration at 8 h [5]: 56 nM

From US9175013B2, “Fused aminodihydrothiazine derivatives” (Eisai R&D Management Co., Ltd., priority 2011, dated 2015)
